Structures can show the parent of a compound that is named as a salt.
Target: PAI-1 (Homo sapiens, UniProt P05121)
Assay: biochemical
Format: biochemical
Conditions: for IC50: PAI chromogenic substrate assay
How it was run: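 Compound preincubated with PAI-1 before addition to a tPA system; residual tPA converts plasminogen to plasmin, which cleaves chromogenic substrate S2251. Released p-nitroaniline read at 405 nm; values given as % inhibition at set concentrations or IC50.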

PAI-1, sequence (P05121 24-402): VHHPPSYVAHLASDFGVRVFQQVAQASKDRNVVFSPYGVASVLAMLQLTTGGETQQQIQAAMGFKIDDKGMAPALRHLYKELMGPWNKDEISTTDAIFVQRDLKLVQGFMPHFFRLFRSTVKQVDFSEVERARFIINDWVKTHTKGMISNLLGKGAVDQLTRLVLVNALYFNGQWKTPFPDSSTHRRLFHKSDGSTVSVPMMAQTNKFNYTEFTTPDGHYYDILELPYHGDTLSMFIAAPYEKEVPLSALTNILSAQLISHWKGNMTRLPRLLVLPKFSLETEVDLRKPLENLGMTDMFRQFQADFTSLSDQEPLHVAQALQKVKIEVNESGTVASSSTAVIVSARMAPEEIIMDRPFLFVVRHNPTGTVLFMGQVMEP

Row | Compound | % Inhibition (5 μm) | % Inhibition (20 μm) | IC50
1 | CN(C)CCSc1ccc(/C=c2\[nH]c(=O)/c(=C/c3cccc(OCc4ccccc4)c3)[nH]c2=O)cc1 [Compound 5486, (3Z,6Z)-3-(3-Benzyloxybenzylidene)-6-(4-(2-dimethylaminoethylthio)benzylidene)-2,5-piperazinedione] | 13% | 55% | 20 µM
2 | CN(C)CCSc1ccc(/C=c2\[nH]c(=O)/c(=C/c3cccc(OCc4ccccc4)c3)[nH]c2=O)cc1 [Compound 5486.HCl, (3Z,6Z)-3-(3-Benzyloxybenzylidene)-6-(4-(2-dimethylaminoethylthio)benzylidene)-2,5-piperazinedione] | 4% | 49% | –
3 | CN(C)CCSc1ccc(/C=c2\[nH]c(=O)/c(=C/c3cccc(OCc4ccccc4)c3)[nH]c2=O)s1 [Compound 5487, (3Z,6Z)-6-(3-Benzyloxybenzylidene)-3-(5-(2-dimethylaminoethylthio)-2-thienyl)methylene-2,5-piperazinedione] | 15% | 60% | 8.6 µM
4 | CN(C)CCSc1ccc(/C=c2\[nH]c(=O)/c(=C/c3cccc(OCc4ccccc4)c3)[nH]c2=O)s1 [Compound 5487.HCl, (3Z,6Z)-6-(3-Benzyloxybenzylidene)-3-(5-(2-dimethylaminoethylthio)-2-thienyl)methylene-2,5-piperazinedione] | 7% | 54% | 7.2 µM
5 | COc1cc(/C=c2\[nH]c(=O)/c(=C/c3ccc(SCCN(C)C)s3)[nH]c2=O)ccc1OCc1ccc([N+](=O)[O-])cc1 [Compound 5488, (3Z,6Z)-3-(5-(2-Dimethylaminoethylthio)-2-thienyl)methylene-6-(3-methoxy-4-(4-nitrobenzyloxy)benzylidene)-2,5-piperazinedione] | 14% | 64% | 8.2 µM
6 | COc1cc(/C=c2\[nH]c(=O)/c(=C/c3ccc(SCCN(C)C)s3)[nH]c2=O)ccc1OCc1ccc([N+](=O)[O-])cc1 [Compound 5488.HCl, (3Z,6Z)-3-(5-(2-Dimethylaminoethylthio)-2-thienyl)methylene-6-(3-methoxy-4-(4-nitrobenzyloxy)benzylidene)-2,5-piperazinedione] | 15% | 60% | 7.6 µM
7 | CN(C)CCSc1ccc(/C=c2\[nH]c(=O)/c(=C/c3ccc(Br)cc3)[nH]c2=O)s1 [Compound 5489, (3Z,6Z)-6-(4-Bromobenzylidene)-3-(5-(2-dimethylaminoethylthio)-2-thienyl)methylene-2,5-piperazinedione] | 6% | 56% | 13.6 µM
8 | CN(C)CCSc1ccc(/C=c2\[nH]c(=O)/c(=C/c3ccc(Br)cc3)[nH]c2=O)s1 [Compound 5489.HCl, (3Z,6Z)-6-(4-Bromobenzylidene)-3-(5-(2-dimethylaminoethylthio)-2-thienyl)methylene-2,5-piperazinedione] | 9% | 55% | 12.6 µM
9 | COc1cc(/C=c2\[nH]c(=O)/c(=C/c3ccc(SCCN(C)C)cc3)[nH]c2=O)ccc1OCc1ccc([N+](=O)[O-])cc1 [Compound 5490, (3Z,6Z)-6-(4-(2-Dimethylaminoethylthio)benzylidene)-3-(3-methoxy-4-(4-nitrobenzyloxy)benzylidene)-2,5-piperazinedione] | 6% | 48% | 20 µM
10 | COc1cc(/C=c2\[nH]c(=O)/c(=C/c3ccc(SCCN(C)C)cc3)[nH]c2=O)ccc1OCc1ccc([N+](=O)[O-])cc1 [Compound 5490.HCl, (3Z,6Z)-6-(4-(2-Dimethylaminoethylthio)benzylidene)-3-(3-methoxy-4-(4-nitrobenzyloxy)benzylidene)-2,5-piperazinedione] | 12% | 66% | 10.8 µM
11 | CN(C)CCSc1ccc(/C=c2\[nH]c(=O)/c(=C/c3ccc4c(c3)OCO4)[nH]c2=O)cc1 [Compound 5491, (3Z,6Z)-6-(4-(2-Dimethylaminoethylthio)benzylidene)-3-(3,4-methylenedioxybenzylidene)-2,5-piperazinedione] | 0% | 65% | 14.2 µM
12 | CN(C)CCSc1ccc(/C=c2\[nH]c(=O)/c(=C/c3ccc4c(c3)OCO4)[nH]c2=O)cc1 [Compound 5491.HCl, (3Z,6Z)-6-(4-(2-Dimethylaminoethylthio)benzylidene)-3-(3,4-methylenedioxybenzylidene)-2,5-piperazinedione] | 0% | 47% | 20 µM
13 | CN(C)CCSc1ccc(/C=c2\[nH]c(=O)/c(=C/c3cn(C)c4ccccc34)[nH]c2=O)cc1 [Compound 5497, (3Z,6Z)-6-(4-(2-Dimethylaminoethylthio)benzylidene)-3-(1-methyl-3-indolyl)methylene-2,5-piperazinedione] | 17% | 72% | 11 µM
14 | CN(C)CCSc1ccc(/C=c2\[nH]c(=O)/c(=C/c3cn(C)c4ccccc34)[nH]c2=O)cc1 [Compound 5497.HCl, (3Z,6Z)-6-(4-(2-Dimethylaminoethylthio)benzylidene)-3-(1-methyl-3-indolyl)methylene-2,5-piperazinedione] | 12% | 59% | 11.5 µM
15 | CN(C)CCSc1ccc(/C=c2\[nH]c(=O)/c(=C/c3c4ccccc4cc4ccccc34)[nH]c2=O)s1 [Compound 5498, (3Z,6Z)-6-(9-Anthrylmethylene)-3-(5-(2-dimethylaminoethylthio)-2-thienyl)methylene-2,5-piperazinedione] | 15% | 52% | 20 µM
16 | CN(C)CCSc1ccc(/C=c2\[nH]c(=O)/c(=C/c3c4ccccc4cc4ccccc34)[nH]c2=O)s1 [Compound 5498.HCl, (3Z,6Z)-6-(9-Anthrylmethylene)-3-(5-(2-dimethylaminoethylthio)-2-thienyl)methylene-2,5-piperazinedione] | 19% | 71% | 11.5 µM
17 | COc1ccc2ccccc2c1/C=c1\[nH]c(=O)/c(=C/c2ccc(SCCN(C)C)s2)[nH]c1=O [Compound 5499, (3Z,6Z)-3-(5-(2-Dimethylaminoethylthio)-2-thienyl)methylene-6-(2-methoxy-1-naphthyl)methylene-2,5-piperazinedione] | 2% | 61% | 11.8 µM
18 | COc1ccc2ccccc2c1/C=c1\[nH]c(=O)/c(=C/c2ccc(SCCN(C)C)s2)[nH]c1=O [Compound 5499.HCl, (3Z,6Z)-3-(5-(2-Dimethylaminoethylthio)-2-thienyl)methylene-6-(2-methoxy-1-naphthyl)methylene-2,5-piperazinedione] | 0% | 54% | 18.4 µM
19 | CN(C)CCSc1ccc(/C=c2\[nH]c(=O)/c(=C/CC(C)(C)C)[nH]c2=O)s1 [Compound 5502, (3Z,6Z)-3-(5-(2-Dimethylaminoethylthio)-2-thienyl)methylene-6-(3,3-dimethyl-1-butylidene)-2,5-piperazinedione] | 0% | 12% | > 20 µM
20 | CN(C)CCSc1ccc(/C=c2\[nH]c(=O)/c(=C/CC(C)(C)C)[nH]c2=O)s1 [Compound 5502.HCl, (3Z,6Z)-3-(5-(2-Dimethylaminoethylthio)-2-thienyl)methylene-6-(3,3-dimethyl-1-butylidene)-2,5-piperazinedione] | 0% | 32% | –

— patent publication US5750530A, “Pharmaceutical diketopiperazine compounds” (Xenova Limited, priority 1994, dated 1998)
